What was measured:
Type in all cases: cell-based, human
[1] = system: autologous T cells of healthy donors; set-up: key: +: positive response
[2] = system: autologous T cells of healthy donors; set-up: key: +: positive response; remark: listed apart in the source
[3] = system: autologous T cells of healthy donors; set-up: key: +: positive response; remark: listed apart in the source
[4] = system: autologous T cells of healthy donors; set-up: key: +: positive response; remark: listed apart in the source
[5] = system: PBMC from SARS-CoV-2 convalescent donors

Sequence | ELISpot [1] | ELISA [2] | Proliferation [3] | positive response detected on one time point with two different assays [4] | positive response detected on two time points with the same assay [4] | IFNγ ELISpot response [5] | immunogenicity compared to the other SLPs [5]
ALNTLVKQLSSNFGAISSVLNDILSRLDKV [SLP 9] | + | + | + | + |  |  | 
GNGGDAALALLLLDRLNQLESKMSGKGQ [SLP 39] | + | + | + | + | + |  | 
IRQGTDYKHWPQIAQFAPSASAFFG [SLP 46] |  |  |  |  |  | high responses | remarkably immunogenic
LFARTRSMWSFNPETNILLNV [SLP 19] |  | + | + | + | + | high responses | 
PLVDLPIGINITRFQTLLALHRSYLTPGDSSSG [SLP 32] |  | + | + |  | + |  | 
